From PubChem BioAssay AID248 (DTP/NCI, 2004)
Where “and” joins values, the source holds several entries; their conditions need not be identical. Equal entries are not always repeated. Toxic doses and inconclusive results are not listed. No stated cut-off is given here; in the data, active means T/C of 150% or more; inactive means T/C below 125%.

System: L1210 leukemia ip in BDF1 mice, survival T/C
Test: NCI In Vivo Anticancer Drug Screen. Data for tumor model L1210 Leukemia (intraperitoneal) in B6D2F1 (BDF1) mice
Conditions: endpoint: mean survival time, higher = longer survival
Outline: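 Read-out is survival time, reported as the treated-group measurement over the vehicle-control measurement.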

[1] = dose: 100.0 mg/kg/injection, schedule: Q01DX001 (ip), vehicle: carboxymethylcellulose (CMC)
[2] = dose: 200.0 mg/kg/injection, schedule: Q01DX001 (ip), vehicle: carboxymethylcellulose (CMC)
[3] = dose: 100.0 mg/kg/injection, schedule: Q01DX009 (ip), vehicle: Klucel (hydroxypropylcellulose) (HPC)
[4] = dose: 200.0 mg/kg/injection, schedule: Q01DX009 (ip), vehicle: Klucel (hydroxypropylcellulose) (HPC)
[5] = dose: 100.0 mg/kg/injection, schedule: Q01DX001 (ip), vehicle: saline with Tween-80
[6] = dose: 100.0 mg/kg/injection, schedule: Q04DX003 (ip), vehicle: saline with Tween-80
[7] = dose: 200.0 mg/kg/injection, schedule: Q04DX003 (ip), vehicle: saline with Tween-80
[8] = dose: 400.0 mg/kg/injection, schedule: Q01DX001 (ip), vehicle: saline with Tween-80
[9] = dose: 400.0 mg/kg/injection, schedule: Q04DX003 (ip), vehicle: saline with Tween-80
[10] = dose: 400.0 mg/kg/injection, schedule: Q01DX009 (ip), vehicle: Klucel (hydroxypropylcellulose) (HPC)
[11] = dose: 100.0 mg/kg/injection, schedule: Q04DX003 (ip), vehicle: Klucel (hydroxypropylcellulose) (HPC)
[12] = dose: 200.0 mg/kg/injection, schedule: Q04DX003 (ip), vehicle: Klucel (hydroxypropylcellulose) (HPC)
[13] = dose: 400.0 mg/kg/injection, schedule: Q04DX003 (ip), vehicle: Klucel (hydroxypropylcellulose) (HPC)
[14] = dose: 100.0 mg/kg/injection, schedule: Q01DX001 (ip), vehicle: saline
[15] = dose: 200.0 mg/kg/injection, schedule: Q01DX001 (ip), vehicle: saline
[16] = dose: 400.0 mg/kg/injection, schedule: Q01DX001 (ip), vehicle: saline

Measured: T/C

C=CCc1c2c(ccc(=O)c1O)-c1c(cc(OC)c(OC)c1OC)CCC2NC(C)=O (configuration not stated)
inactive: [1] 117 % of control | dose: 177.6 mg/kg/injection, schedule: Q01DX001 (ip), vehicle: carboxymethylcellulose (CMC) 110 % of control and 119 % of control | [2] 117 % of control | dose: 266.8 mg/kg/injection, schedule: Q01DX001 (ip), vehicle: carboxymethylcellulose (CMC) 95 % of control and 118 % of control

O=C(/C=N\O)c1ccncc1
inactive: [3] 100 % of control | [4] 94 % of control

CC1=CC(=C2C=C(C)C(=O)C(C)=C2)C=C(C)C1=O
inactive: [5] 87 % of control | [6] 94 % of control and 102 % of control | [7] 94 % of control and 96 % of control | [8] 87 % of control | [9] 94 % of control and 89 % of control

OCC1C(CO)C2(Cl)C(Cl)=C(Cl)C1(Cl)C2(Cl)Cl (configuration not stated)
inactive: [3] 90 % of control | dose: 100.0 mg/kg/injection, schedule: Q04DX003 (ip), vehicle: saline 94 % of control | [4] 100 % of control | dose: 200.0 mg/kg/injection, schedule: Q04DX003 (ip), vehicle: saline 101 % of control | [10] 111 % of control | dose: 400.0 mg/kg/injection, schedule: Q04DX003 (ip), vehicle: saline 99 % of control

CC(C)COC(=O)C#CC(=O)OCC(C)C
inactive: dose: 25.0 mg/kg/injection, schedule: Q01DX001 (ip), vehicle: water 111 % of control | dose: 50.0 mg/kg/injection, schedule: Q01DX001 (ip), vehicle: water 106 % of control | dose: 100.0 mg/kg/injection, schedule: Q01DX001 (ip), vehicle: water 116 % of control

CCC(=O)OC1C(C)OC(OC2C(C)OC(O[C@H]3[C@@H](CC=O)C[C@@H](C)[C@@H](O)/C=C/C=C/C[C@@H](C)OC(=O)C[C@@H](OC(=O)CC)[C@@H]3OC)C(O)C2N(C)C)CC1(C)O (some centres not stated)
inactive: [3] 96 % of control | [11] 104 % of control | [4] 93 % of control | [12] 95 % of control | [10] 98 % of control | [13] 91 % of control

CSc1nc(C)c(C)c(=O)[nH]1
inactive: [14] 104 % of control | [15] 116 % of control | [16] 124 % of control

CC(=O)OCc1ccc2ccccc2c1
inactive: [6] 101 % of control | [7] 106 % of control | [9] 101 % of control

Nc1cc(C(=O)Nc2ccc(S(=O)(=O)O)cc2)ccc1C(=O)Nc1ccc(S(=O)(=O)O)cc1
inactive: dose: 31.0 mg/kg/injection, schedule: Q01DX Z (ip), vehicle: water 87 % of control | dose: 62.5 mg/kg/injection, schedule: Q01DX Z (ip), vehicle: water 100 % of control | dose: 125.0 mg/kg/injection, schedule: Q01DX Z (ip), vehicle: water 97 % of control | dose: 250.0 mg/kg/injection, schedule: Q01DX Z (ip), vehicle: water 95 % of control | dose: 500.0 mg/kg/injection, schedule: Q01DX Z (ip), vehicle: water 97 % of control

COc1ccccc1N=Nc1ccc(O)c(C(=O)O)c1
inactive: [11] 102 % of control | [12] 103 % of control

CN(C)c1ccc(/C=N\NC(=O)N/N=C/c2ccc(N(C)C)cc2)cc1
inactive: dose: 25.0 mg/kg/injection, schedule: Q01DX001 (ip), vehicle: Klucel (hydroxypropylcellulose) (HPC) 92 % of control | dose: 50.0 mg/kg/injection, schedule: Q01DX001 (ip), vehicle: Klucel (hydroxypropylcellulose) (HPC) 97 % of control | dose: 100.0 mg/kg/injection, schedule: Q01DX001 (ip), vehicle: Klucel (hydroxypropylcellulose) (HPC) 97 % of control and 90 % of control

CC(=O)Nc1nn[nH]n1
inactive: dose: 100.0 mg/kg/injection, schedule: Q01DX001 (ip), vehicle: other 93 % of control | [3] 90 % of control | [6] 94 % of control | dose: 200.0 mg/kg/injection, schedule: Q01DX001 (ip), vehicle: other 96 % of control | [4] 91 % of control | [7] 94 % of control | dose: 400.0 mg/kg/injection, schedule: Q01DX001 (ip), vehicle: other 96 % of control | [9] 90 % of control

COc1ccc(C(=O)N/N=C/c2ccccc2Cl)cc1
inactive: [3] 106 % of control | [4] 97 % of control | [10] 102 % of control

CC(C)(C)OC(=O)NC(CC(=O)O)C(=O)O (configuration not stated)
inactive: dose: 25.0 mg/kg/injection, schedule: Q01DX009 (ip), vehicle: saline with Tween-80 99 % of control | dose: 50.0 mg/kg/injection, schedule: Q01DX009 (ip), vehicle: saline with Tween-80 89 % of control | dose: 100.0 mg/kg/injection, schedule: Q01DX009 (ip), vehicle: saline with Tween-80 101 % of control and 117 % of control | dose: 100.0 mg/kg/injection, schedule: Q04DX002 (ip), vehicle: Klucel (hydroxypropylcellulose) (HPC) 90 % of control | dose: 200.0 mg/kg/injection, schedule: Q01DX009 (ip), vehicle: saline with Tween-80 96 % of control | dose: 200.0 mg/kg/injection, schedule: Q04DX002 (ip), vehicle: Klucel (hydroxypropylcellulose) (HPC) 101 % of control | dose: 400.0 mg/kg/injection, schedule: Q01DX009 (ip), vehicle: saline with Tween-80 91 % of control | dose: 400.0 mg/kg/injection, schedule: Q04DX002 (ip), vehicle: Klucel (hydroxypropylcellulose) (HPC) 101 % of control

COc1cc(/C=N/Nc2nnc(N/N=C/c3cc(I)c(O)c(OC)c3)c3ccccc23)cc(I)c1O
inactive: dose: 50.0 mg/kg/injection, schedule: Q01DX001 (ip), vehicle: saline 95 % of control | [14] 95 % of control | [15] 101 % of control | [16] 97 % of control

C[Si](F)(c1cccc2ccccc12)c1cccc2ccccc12
inactive: [5] 97 % of control | dose: 200.0 mg/kg/injection, schedule: Q01DX001 (ip), vehicle: saline with Tween-80 103 % of control | [8] 102 % of control

CCOc1ccc(Br)cc1C1N(Cc2ccccc2OC)CCCN1Cc1ccccc1OC
inactive: [1] 100 % of control | [2] 92 % of control | dose: 400.0 mg/kg/injection, schedule: Q01DX001 (ip), vehicle: carboxymethylcellulose (CMC) 94 % of control

OCCCCCn1cnc2c(=S)nc[nH]c21
inactive: [3] 101 % of control | [11] 93 % of control | [4] 101 % of control | [12] 98 % of control | [10] 102 % of control | [13] 95 % of control

Cc1cc(C(=O)O)ccc1Cl
inactive: dose: 100.0 mg/kg/injection, schedule: Q04DX003 (ip), vehicle: other 101 % of control | dose: 200.0 mg/kg/injection, schedule: Q04DX003 (ip), vehicle: other 101 % of control | dose: 400.0 mg/kg/injection, schedule: Q04DX003 (ip), vehicle: other 103 % of control

O=C(O)c1cc([N+](=O)[O-])ccc1O
inactive: [1] 95 % of control | dose: 100.0 mg/kg/injection, schedule: Q04DX002 (ip), vehicle: saline 101 % of control | [2] 95 % of control | dose: 200.0 mg/kg/injection, schedule: Q04DX002 (ip), vehicle: saline 101 % of control | dose: 400.0 mg/kg/injection, schedule: Q04DX002 (ip), vehicle: saline 101 % of control

COC(=O)Cc1cn[nH]c1C(=O)OC
inactive: dose: 100.0 mg/kg/injection, schedule: Q01DX009 (ip), vehicle: saline 97 % of control | [11] 93 % of control | dose: 200.0 mg/kg/injection, schedule: Q01DX009 (ip), vehicle: saline 94 % of control | [12] 97 % of control | dose: 400.0 mg/kg/injection, schedule: Q01DX009 (ip), vehicle: saline 95 % of control | [13] 97 % of control

CC(=O)Nc1ccc2ccccc2c1-c1c(N)ccc2ccccc12
inactive: dose: 100.0 mg/kg/injection, schedule: Q01DX009 (ip), vehicle: gum acacia 91 % of control | dose: 100.0 mg/kg/injection, schedule: Q04DX003 (ip), vehicle: gum acacia 97 % of control | dose: 200.0 mg/kg/injection, schedule: Q01DX009 (ip), vehicle: gum acacia 96 % of control | dose: 200.0 mg/kg/injection, schedule: Q04DX003 (ip), vehicle: gum acacia 92 % of control | dose: 400.0 mg/kg/injection, schedule: Q01DX009 (ip), vehicle: gum acacia 99 % of control | dose: 400.0 mg/kg/injection, schedule: Q04DX003 (ip), vehicle: gum acacia 101 % of control
